Legend:
[1] = test system: cathepsins B and L (SmCatB/L); experiment: Protease activity in extracts of adult worms treated with gallinamides, Cbz–Phe–Arg–AMC; type: cell-based, S. mansoni; details: adult worms incubated with 5 μM compound for 24 h (Figure 2 legend: 48 h); extract assayed with Cbz–Phe–Arg–AMC at pH 5.5
Procedure: (§1) Adult mixed sex S. mansoni were incubated in the presence of 5 μM gallinamide A, 1, 6, or 9 for 24 h, and protein extracts therefrom were assayed with the cathepsins B and L substrate, Cbz–Phe–Arg–AMC. Protease activity was reduced by ∼95% relative to the activity of untreated controls (Figure 2A). For comparison, we also quantified the activity of the nondigestive proteolytic enzyme, S. mansoni prolyl oligopeptidase (SmPOP). This serine protease, which is localized in the tegument of adult worms, was assayed with the selective substrate Cbz–Gly–Pro–AMC.[44] SmPOP was unaffected by the gallinamide treatment.
(§2) Figure 2 SmCB1 is a target for gallinamides in adult S. mansoni. (A) Mixed sex, adult S. mansoni were incubated for 48 h with 5 μM gallinamide A or 1, 6, and 9. After washing and preparation of worm extract, proteolytic activities (0.2 μg of protein) were measured in a kinetic assay using the cathepsin B and L substrate, Cbz–Phe–Arg–AMC (SmCatB/L, gray bars) at pH 5.5 or the prolyl oligopeptidase substrate, Cbz–Gly–Pro–AMC (SmPOP, white bars) at pH 8.0. Means ± SE of three replicates are normalized to the control not exposed to the inhibitor (set as 100%). (B–D) Imaging of SmCB1 using the gallinamide compound 5 as an activity-based probe. 5 contains an alkyne tag that can be modified by a copper-catalyzed click reaction with a fluorescent reagent (Alexa Fluor 647-azide) (B). Recombinant SmCB1 (rSmCB1, 0.5 μg) (C) or extracts of adult S. mansoni worms (7 μg of protein) (D) were incubated with 5 (10 μM) for 1 h and then clicked. Reactions were resolved by SDS-PAGE, and gels were visualized using a fluorescence scanner (Probe), stained for protein using Coomassie Brilliant Blue (CBB), or analyzed by Western blot with an anti-SmCB1 antibody (WB). In a control experiment, rSmCB1 or worm extract was treated with the […] protease inhibitor E-64 (10 μM), prior to incubation with 5. The positions of rSmCB1, native SmCB1, and its pro-form (pro-SmCB1) are indicated. The mass difference between rSmCB1 and native SmCB1 is caused by glycosylation (see Methods). The active site of the pro-SmCB1 is shielded by a propeptide[45] that prevents effective binding of 5. […]
(§3) Proteolytic activities in S. mansoni adult extracts were measured in a continuous kinetic assay using the following peptidyl fluorogenic substrates (Bachem) or internally quenched FRET substrates (IOCB): 50 μM Cbz–Phe–Arg–AMC for cathepsins B and L,[13],[15] […] Substrate hydrolysis was measured continuously using an Infinite M1000 microplate reader (Tecan) at excitation and emission wavelengths of 360/465 nm for AMC substrates and 320/420 nm for FRET substrates. […]

[2] = test system: S. mansoni prolyl oligopeptidase (SmPOP); experiment: Protease activity in extracts of adult worms treated with gallinamides, Cbz–Gly–Pro–AMC; type: cell-based; details: adult worms incubated with 5 μM compound for 24 h (Figure 2 legend: 48 h); extract assayed with Cbz–Gly–Pro–AMC at pH 8.0
Procedure: as §1, §2, §3

SmCB1 = SmCB1 (Schistosoma mansoni, UniProt Q8MNY2, T185A/T300A); experiment: SmCB1 IC50 determination with 30 min preincubation; type: biochemical, S. mansoni
Procedure: Inhibition measurements were performed in duplicate in 96-well microplates (100 μL assay volume) at 37 °C. SmCB1 (40 pM) was added to a mixture of the fluorogenic substrate Cbz–Phe–Arg–AMC (25 μM) and an inhibitor (0–100 μM) in 0.1 M sodium acetate, pH 5.5, containing 2.5 mM dithiothreitol and 0.01% (w/v) BRIJ 35. Substrate hydrolysis was monitored in an Infinite M1000 microplate reader (Tecan) at excitation and emission wavelengths of 360 and 465 nm, respectively, for up to 150 min. An observed first-order rate constant, kobs, was calculated at each inhibitor concentration by fitting the progress curve to the equation P = vi/kobs(1 – exp(−kobst)) + d where P is the product formation, t is the reaction time, vi is the initial velocity, and d is the offset. […] The second-order rate constant, k2nd, (and SE value) was determined by fitting the linear equation kobs = (k2nd[I])/(1 + [S]/Km), where [S] is the substrate concentration, [I] is the inhibitor concentration, and KM is the Michaelis–Menten constant. The KM value determined for SmCB1 was 25 μM. […] To determine IC50 values, SmCB1 (40 pM) was preincubated with the inhibitor (0–100 μM) for 30 min under assay conditions as described above, followed by the addition of the fluorogenic substrate Cbz–Phe–Arg–AMC (20 μM). Substrate hydrolysis was monitored for 30 min in a microplate reader as described above. The IC50 values were determined by nonlinear regression using GraFit software (Erithacus Software).

Chain of SmCB1 (Q8MNY2 87-340 T185A/T300A): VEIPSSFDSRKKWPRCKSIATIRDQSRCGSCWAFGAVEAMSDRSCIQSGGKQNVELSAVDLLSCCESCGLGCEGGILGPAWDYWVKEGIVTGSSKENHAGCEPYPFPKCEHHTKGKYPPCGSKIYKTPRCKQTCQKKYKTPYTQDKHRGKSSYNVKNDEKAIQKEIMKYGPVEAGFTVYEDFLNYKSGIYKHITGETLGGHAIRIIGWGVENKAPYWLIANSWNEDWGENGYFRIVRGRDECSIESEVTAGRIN

SMILES | protease activity reduced relative to untreated controls [1] [%] | SmPOP activity after gallinamide treatment [2] | IC50 (SmCB1) [nM]
CCC(C)C(C(=O)OC(CC(C)C)C(=O)NC(CC(C)C)C(=O)NC(C)C=CC(=O)N1C(=O)C=C(OC)C1CC(C)C)N(C)C (centres unmarked) [compound 1] | ~95 | unaffected | 92
COC1=CC(=O)N(C(=O)/C=C/[C@H](C)NC(=O)[C@H](CC(C)C)NC(=O)[C@H](CC(C)C)OC(=O)[C@H](Cc2ccccc2)N(C)C)[C@H]1Cc1ccccc1 [compound 6] | ~95 | unaffected | 517
CCC(C)C(C(=O)OC(CC(C)C)C(=O)NC(CC(C)C)C(=O)NC(C)C=CC(=O)N1C(=O)C=C(OC)C1Cc1ccccc1)N(C)C (centres unmarked) [compound 9] | ~95 | unaffected | 
CC[C@H](C)[C@@H](C(=O)O[C@@H](CC(C)C)C(=O)N[C@@H](CC(C)C)C(=O)N[C@@H](C)/C=C/C(=O)N1C(=O)C=C(OC)[C@@H]1C)N(C)C [gallinamide A] | ~95 | unaffected | 44

From paper PMC11184554, “Nature-Inspired Gallinamides Are Potent Antischistosomal Agents: Inhibition of the Cathepsin B1 Protease Target and Binding Mode Analysis” (ACS Infectious Diseases, 2024)
